Experimental data: US6441032B1, “Alpha-(4-Ethoxyphenyl)-N-tert-butylnitrone, pharmaceutical compositions and their medical use” (Centaur Pharmaceuticals, Inc., priority 1997, dated 2002)

Columns and labels:
[1] = test system: Lewis rats with MBP-induced EAE; experiment: Prevention of MBP-induced experimental allergic encephalomyelitis; assay type: in vivo, Lewis rat; conditions: 100 mg/kg b.i.d. oral gavage, day 3 to day 16 post-inoculation
Description: Female, Lewis rats of 8 weeks of age (180-250 g) were weighed and then given two intradermal injections (0.1 mL each) of 0.4 mg of M. tuberculin in 0.1 mL incomplete Freunds adjuvant and […] of myelin basic protein in 0.1 mL of saline into the base of the tail. Animals were weighed daily and given a clinical score beginning on Day 8, post inoculation, according to the following criteria:
2.5=Hind limb paralysis and front limb weakness
3.0=Hind and front limb paralysis
4.0=Moribund state or death
On day 3, post-inoculation animals were administered b.i.d either a test compound (100 mg/kg) or 1% methylcellulose vehicle by oral gavage up to and including day 16.

[2] = test system: Male Sprague-Dawley rats injected with Aβ(25-35) and ibotenate; experiment: Reduction of cognitive defects due to Aβ-peptide/ibotenate (Morris water maze); assay type: in vivo, Sprague-Dawley rat; conditions: 10 mgl/k by oral gavage daily
Excerpt: The procedures employed in this example are similar to those described in Dornan et al. NeuroReport 5, 165-168 (1993). Male Sprague-Dawley rats (200-300 g) were weighed and given 10 mgl/k of α-(2-ethoxyphenyl)-N-tert-butylnitrone or 1% methylcellulose by oral gavage. One hour later, the rats were stereotaxically injected into the CA1 region of their hippocampus with 8 nmol of Aβ(25-35) and 6 nmol of ibotenate per side (coordinates from bregma −3.6=AP, ±2.2=ML, −3.0=DV from the top of the dura). Controls were injected with PBS (pH 7.4). All injections were 1.5 μL in volume. The animals receiving PBS were orally dosed with 1% methylcellulose. Oral dosing continued daily until the end of the Morris water maze testing.
Nine to eleven days following injection, animals were tested in a Morris water maze task to measure spatial memory and learning. Animals were given three days of testing with four to six trials per day. The last trial on the fourth day was a probe trial where the platform was removed and time in quadrant and annulae crossings were determined. Following the behavioral testing, animals were perfused with 10% neutral formalin. The brain was post-fixed for 1 week in 10% formalin and then sliced for histological evaluation. Image analysis of cresyl violet staining was used to compare the neuronal loss (lesion volume) in the hippocampus between groups.

MRL/MpJ Fas^lpr mice = experiment: Reduction of cognitive deficits in autoimmune mice (T-maze task); assay type: in vivo, mouse; conditions: 100 mg/kg oral gavage daily for 8 to 9 weeks, versus untreated mutant mice
Description: MRL/MpJfas^lPr (“mutant mice” or “Fas^lPr”) strains of mice have been described as useful models of Lupus due to their autoimmune lymphoproliferative pathology. In particular, the mutant mice show a cognitive deficit at approximately four months of age, which is not observed at two months of age. See, for example, Forster et al., 1988. Behav. Neural Biology, 49, 139-151.
In the experiment, male MRL/MpJ Fas^lpr and normal MRL/MpJ++mice of 8 weeks of age were weighed and administered 100 mg/kg of the test compound (either α-(2-ethoxyphenyl)-N-tert-butylnitrone or α-(4-ethoxyphenyl)-N-cyclohexylnitrone) or 1% methylcellulose vehicle by oral gavage daily for 8 to 9 weeks. At 4 months of age, the mice were tested for avoidance, discrimination, session criteria and acquisition in a one day T-maze task with a maximum of 25 trials. Criteria was met with four of five trials correct with the last two correct trials being consecutive in avoidance and discrimination.

Structure (SMILES)	CNS inflammatory deficit in acute EAE animals [1]	also measured
CCOc1cc(C=[N+]([O-])C(C)(C)C)ccc1OC [Example 3, α-(3-Ethoxy-4-methoxyphenyl)-N-tert-butylnitrone]	reduced the CNS inflammatory deficit	
CCOc1ccc(C=[N+]([O-])C(C)(C)C)cc1 [Example 4, α-(4-Ethoxyphenyl)-N-tert-butylnitrone]	did not significantly reduce the CNS inflammatory deficit	
COc1cc(C=[N+]([O-])C(C)(C)C)ccc1OCc1ccccc1 [Example 5, α-(4-Benzyloxy-3-methoxyphenyl)-N-tert-butylnitrone]	did not significantly reduce the CNS inflammatory deficit	
CCOc1ccccc1C=[N+]([O-])C(C)(C)C [Example 7, α-(2-Ethoxyphenyl)-N-tert-butylnitrone]	did not significantly reduce the CNS inflammatory deficit	Aβ peptide/ibotenate-induced learning deficit [2]: reduced the Aβ peptide/ibotenate-induced learning deficit; acquisition in T-maze task (MRL/MpJ Fas^lpr mice): reduced acquisition values; avoidance in T-maze task (MRL/MpJ Fas^lpr mice): acquired avoidance skills earlier
CCCC[N+]([O-])=Cc1ccc(OCC)cc1 [Example 10, α-(4-ethoxyphenyl)-N-n-butylnitrone]	did not significantly reduce the CNS inflammatory deficit	
CCOc1ccc(C=[N+]([O-])C2CCCCC2)cc1 [Example 11, α-(4-Ethoxyphenyl)-N-cyclohexylnitrone]	reduced the CNS inflammatory deficit	acquisition in T-maze task (MRL/MpJ Fas^lpr mice): reduced acquisition values; avoidance in T-maze task (MRL/MpJ Fas^lpr mice): acquired avoidance skills earlier
CCOc1ccc(C=[N+]([O-])C2CCCCC2)cc1OC [Example 15, α-(4-Ethoxy-3-methoxyphenyl)-N-cyclohexylnitrone]	did not significantly reduce the CNS inflammatory deficit	
CCOc1cc(C=[N+]([O-])C(C)C)ccc1OC [Example 17, α-(3-Ethoxy-4-methoxyphenyl)-N-isopropylnitrone]	reduced the CNS inflammatory deficit	
CCCCCCOc1ccc(C=[N+]([O-])C2CCCCC2)cc1OCC [Example 22, α-(3-Ethoxy-4hexyloxyphenyl)-N-cyclohexylnitrone]	reduced the CNS inflammatory deficit	
CCCCCCCCOc1ccc(C=[N+]([O-])C(C)(C)C)c(F)c1 [Example 29, α-(2-Fluoro-4-octyloxyphenyl)-N-tert-butylnitrone]	did not significantly reduce the CNS inflammatory deficit	
CC(C)(C)[N+]([O-])=Cc1ccc(OCc2ccccc2)cc1 [Example 41, α-(4-Benzyloxyphenyl)-N-tert-butylnitrone]	reduced the CNS inflammatory deficit	
[O-][N+](=Cc1ccc(OCc2ccccc2)cc1)C1CCCC1 [Example 42, α-(4-Benzyloxyphenyl)-N-cyclopentylnitrone]	reduced the CNS inflammatory deficit	
CCOc1cc(C=[N+]([O-])C(C)(C)CC(C)(C)C)ccc1OC [Example 45, α-(3-Ethoxy-4-methoxyphenyl)-N-tert-octylnitrone]	reduced the CNS inflammatory deficit	
